# Experimental data as given in US11319452B2, “Vapor source using solutions of precursors in tertiary amines” (President and Fellows of Harvard College, priority 2013, dated 2022).
# Tests used:
# [1] = Solubility of amidinate precursors in dry, oxygen-free trialkylamine solvent; assay type: physicochemical; details: for solubility: in dry
# Procedure: Another important criterion for solvents is that they dissolve a sufficient amount of precursor. Useful concentrations of the solutions are typically larger than 10 weight per cent, larger than 20 weight percent in more preferred embodiments, and larger than 40 weight percent in the most preferred embodiments.
# Purification to remove oxygen, moisture and di-n-hexylamine was carried out as follows: 95 g of tri-n-hexylamine was mixed with 1 g of Na and heated to 100° C. under a N2 atmosphere for 3 hours. Then the purified tri-n-hexylamine was distilled out and stored in a glove box under a purified N2 atmosphere. A nickel precursor, bis(N,N′-di-tert-butylacetamidinato)nickel(II),
# [drawing 6] was dissolved in the purified dry, oxygen-free tri-n-hexylamine.
# [2] = Evaporation rate by isothermal thermogravimetric analysis (TGA); assay type: physicochemical
# Excerpt: DLE is a non-equilibrium evaporation process, because the vapor is swept away from the surface of the liquid before it can reach the equilibrium vapor pressure. The amount of liquid vaporized is thus determined by the evaporation rate. The rate of evaporation of a material can be measured using isothermal thermogravimetric analysis (TGA). In this method, a small sample (typically about 50 milligrams) of a material is held in the pan of a microbalance while a flow of a gas, such as nitrogen, passes over the surface of the material. As vapor leaves the surface of the material, its mass decreases and the microbalance measures the mass of the remaining un-evaporated material. […] The furnace temperature was increased from 110° C. to 115° C. during the time from 160 minutes to 162 minutes, at which time the temperature had stabilized at 115° C. The many mass values measured from 162 minutes until 175 minutes form a nearly continuous thick line in FIG. 1. […]
# One class of precursors widely used for ALD and CVD are metal amidinates. One example is (N,N′-di-sec-butylacetamidinato)copper(I) dimer, whose evaporation rate was also measured by the same isothermal TGA method. […]
# [3] = tested on: chromosomes; details: reported in vitro; cited from earlier work
# [4] = tested on: marine organisms; details: cited from earlier work
# [5] = tested on: human; details: cited from earlier work
# [6] = room temperature; cited from earlier work
# [7] = in tri-n-hexylamine and in tri-n-heptylamine
compound,measurement,setting,value
"bis(N,N′-di-tert-butylacetamidinato)nickel(II)",solubility,[1]; oxygen-free tri-n-hexylamine,22 weight percent
"tris(N,N′-diisopropylacetamidinato)yttrium(III)",solubility (in words),[1]; [7],high
"bis(N,N′-diisopropylpentamidinato)manganese(II)",solubility,[1]; oxygen-free tri-n-hexylamine,8 weight percent
CCCCCCN(CCCCCC)CCCCCC [tri-n-hexylamine],evaporation rate,"[2]; 115° C., flow of nitrogen gas at one atmosphere",0.346 mg min^−1 cm^−2
"bis(N,N′-diisopropylacetamidinato)tin(II)",solubility (in words),[1]; in tri-n-hexylamine,high
"bis(N,N′-di-tert-butylacetamidinato)ruthenium(II)tricarbonyl",solubility (in words),[1]; [7],moderate
"bis(N,N′-di-sec-butylacetamidinato)copper(I) dimer",evaporation rate,"[2]; 160° C.=433 K, read from FIG. 2, neat precursor into 1 atmosphere nitrogen",about 0.8 mg cm^−2 min^−1
same,solubility,[1]; oxygen-free tri-n-hexylamine and in tri-n-heptylamine,about 30 weight percent
"bis(N,N′-di-tert-butylacetamidinato)manganese(II)",solubility,[1]; oxygen-free tri-n-hexylamine,42 weight percent
"tris(N,N′-diisopropylformamidinato)lanthanum(III)",solubility (in words),[1]; [7],high
Cc1cccc2ccccc12 [1-methylnaphthalene],chromosome damage in vitro,[3],cause damage to chromosomes
same,toxicity to marine organisms,[4],highly toxic
same,effect of repeated human exposure,[5],causes sensitization
"bis(N,N′-diisopropylacetamidinato)cobalt(II)",solubility (in words),[1]; in tri-n-hexylamine,high
"CCCCCCCCCCCC [Dodecane, n-dodecane]",vapor pressure,[6],around 120 mTorr
